# In patent US6046231A, “Use of 4'-bromoflavone in a cancer chemopreventative composition and method” (The Board of Trustees of the University of Illinois, priority 1999, dated 2000):
# Entries after “also recorded” stand apart in the source; their conditions may differ.
# What was measured:
# glutathione (GSH) = assay: Induction of glutathione (GSH) in mouse liver and mammary glands (Table 3); type: in vivo
# [1] = system: Salmonella typhimurium strain TM677; assay: Antimutagenic assay, DMBA-induced mutagenesis; type: cell-based; conditions: S. typhimurium TM677; listed as 4'-BF
# Protocol: A dose and time dependent induction of two major detoxification isoforms of GST (α form and μ form) mediated by 4'-BF has been studied in H4IIE rat hepatoma cells. In order to determine a possible mechanism of induction, the QR mRNA expression was tested using a RT-PCR technique and the induction patterns using HepG2 cells transfected with QR-chloramphenical acetyltransferase plasmid constructs containing various portions of 5'-region of the QR gene were analyzed. The antimutagenic activity of 4'-BF was tested in an antimutagenic assay against DMBA-induced mutagenesis with Salmonella typhimurium strain TM677. The chemopreventive efficacy of 4'-BF also was evaluated in a DMBA-induced mammary tumor carcinogenesis model in Sprague Dawley rats.
# [2] = system: quinone reductase (QR), Hepa 1c1c7 cells; assay: Quinone reductase (QR) induction in Hepa 1c1c7 cells; type: cell-based, murine
# [3] = system: DMBA-induced mammary tumors; assay: Inhibition of DMBA-induced mammary carcinogenesis in rats; type: in vivo, female Sprague Dawley rat; conditions: for tumor multiplicity (FIG. 9): control 2.63; for mammary tumor multiplicity: control 2.75; for mammary tumor incidence: control 88.9%; for tumor incidence (FIG. 9): control 89.5
# Protocol: Inhibition of DMBA-induced Mammary Carcinogensis in Rats. On the basis of a 3-week feeding study, maximum tolerated doses were evaluated, and suitable doses were selected for the study of inhibition of DMBA-induced mammary carcinogenesis in rats. Virgin, female Sprague Dawley rats were obtained from Harlan/Sprague-Dawley at 35 days of age. All animals were placed on a diet of Teklad 4% Rat/Mouse chow at this time. After a quarantine period of 1 week, at 42 days of age, the animals were randomized by weight into six groups and placed on the appropriate experimental diet containing 2000 and 4000 mg 4'-bromoflavone/kg diet. At 50 days of age, the animals received a single i.g. dose of 15 mg of DMBA in sesame oil (or vehicle only) following an overnight fast. The rats were maintained on the 4'-bromoflavone diet for one additional week, and then returned to the basal diet without test agent at 57 days of age. During the experiment, all animals were weighed weekly. Palpation for mammary tumors began 3 weeks after the animals received the DMBA, and continued until termination of the study (120 days post DMBA). The date of appearance and location of all tumors was recorded. Animals were observed twice daily to assess their general health. Moribund animals were sacrificed by CO2 asphyxiation. Moribund animals or animals found dead were necropsied immediately. At the termination of the experiment, all mammary tumors were excised and weighed, and mean tumor weight was established. Tumors for Group 2-5 were frozen. The abdominal/inguinal glands of Group 8 were disected free of lymph nodes; one side was frozen, the other side was fixed. Incidence was evaluated with Fisher's exact test and the Logrank test was used for tumor incidence rate. Tumor multiplicity was calculated using Armitage's test for trends in proportions. Latency and tumor weight were evaluated by an unpaired t-test. Survival was analyzed with log-rank analysis.
# Inhibition of DMBA-induced Mammary Tumor Carcinogenesis in Rat. Maximum dose tolerance (MDT) studies (data not included) were performed prior to conducting the chemopreventative studies of 4'-BF in animals. Briefly, a test agent was examined in a three-week study to determine the maximum dose that can be administered without causing suppression of body weight gain or inducing other gross manifestations of toxicity and to determine the effective dose in term of induction of phase II detoxifying enzymes. According to the MDT study, two doses of 4'-BF (2000 and 4000 mg/kg diet) were used for the chemopreventative studies.
# cytochrome P4501A1 = assay: Effect on DMBA-induced cytochrome P4501A1 activity in rat tissues; type: in vivo, Sprague Dawley rat
# Protocol: At 43 days of age, Sprague Dawley rats were placed on various experimental diets (Table 1) for 1 week prior to administration of a single (i.g.) dose of DMBA (15 mg). Animals then were weighed and sacrificed by CO2 asphyxiation. Tissues (livers and mammary glands) were collected, rinsed with saline, frozen in liquid nitrogen, and stored at -80° C. until analysis. Individual tissues were homogenized in 0.05 M Tris-HCl buffer (pH 7.5) containing 0.25 M sucrose. Cytosolic and microsomal fractions were obtained through differential centrifugation. Dicumarol-sensitive QR activity was measured as described above using 50 μl of suitably diluted cytosol supernatants (in duplicate). Cytochrome P4501A1-mediated EROD activities were determined as described previously in R. Poul et al. Anal. Biochem., 107, pp. 265-275 (1980) and S. Sharma et al., Cancer Res., 54, pp. 5848-5844 (1994), with slight modifications using suitably diluted microsomal protein. Enzyme activities were expressed as nmol/mg protein/min. Protein content was determined using Bradford reagent with BSA as standard, and data were presented as mean ±SE and analyzed using Student's t test (n=5).
smiles,measurement,setting,value
O=c1cc(-c2ccc(Br)cc2)oc2ccccc12 [4'-Bromoflavone],"GSH (Treated/Control), Liver",glutathione (GSH); liver,2.11
same,"GSH (Treated/Control), Mammary Gland",glutathione (GSH); mammary gland,1.77
same,inhibition of DMBA-induced mutagenesis,[1],strongly inhibited
same,Cq,[2]; Hepa 1c1c7 cells,0.15 µM
same,"CI, chemoprevention index (IC50/CD)","[2]; IC50/CD, 2880 min",> 17000
same,EC (2-fold),"[2]; Mus musculus, Hepa-1c1c7, 48 h, Hepa 1c1c7 cells, 48 h, read-out: CD, concentration to double the specific activity of QR",0.01 µM
same,times more active than sulforaphane,[2]; compared to sulforaphane,about 40 times
same,tumor multiplicity (FIG. 9),[3]; 2000 mg/kg diet,0.65 tumors/rat
same,mammary tumor multiplicity,[3]; 2000 mg/kg diet,0.20
same,mammary tumor incidence,[3]; 2000 mg/kg diet,25%
same,tumor incidence (FIG. 9),[3]; 2000 mg/kg diet,30%
same,tumor multiplicity (FIG. 9),[3]; 4000 mg/kg diet,0.20 tumors/rat
same,mammary tumor multiplicity,[3]; 4000 mg/kg diet,0.15
same,mammary tumor incidence,[3]; 4000 mg/kg diet,15%
same,tumor incidence (FIG. 9),[3]; 4000 mg/kg diet,20%
same,tumor latency,"[3]; 2000 or 4000 mg/kg diet, listed as 4'-BF",enhanced greatly; also recorded: greatly increased the tumor latency (P<0.001); also recorded: significantly increased (P<0.01)
same,incidence and multiplicity of mammary tumors,[3]; DMBA-induced,significantly inhibited
same,cytochrome P4501A1 activity vs control (basal diet),"cytochrome P4501A1; liver and mammary gland, each treatment regimen",significantly induced
same,DMBA-induced cytochrome P4501A1 activity,"cytochrome P4501A1; liver or mammary gland, in addition to DMBA",did not significantly alter
